Test results published in patent publication US20020156236A1, “Binding sites for phosphotyrosine binding domains” (priority 1995, published 2002).
Where a SMILES comes first, the peptide text is derived from it.

The molecules below were run against T1, PTB domain/c-erbB2 binding (GST-PTB domain of SHC; c-erbB2 from SKBR3 lysate) (Homo sapiens, UniProt P29353) (assay: biochemical). Settings: Inhibition (relative inhibition scale of IC50).
T1 construct: GST-PTB domain fusion proteins were expressed from recombinant baculovirus in sf9 cells; made in house; host or cells: Sf9 cells (recombinant baculovirus) for GST-PTB; c-erbB2 endogenous in SKBR3 cell lysate
T1 sequence (P29353 156-341): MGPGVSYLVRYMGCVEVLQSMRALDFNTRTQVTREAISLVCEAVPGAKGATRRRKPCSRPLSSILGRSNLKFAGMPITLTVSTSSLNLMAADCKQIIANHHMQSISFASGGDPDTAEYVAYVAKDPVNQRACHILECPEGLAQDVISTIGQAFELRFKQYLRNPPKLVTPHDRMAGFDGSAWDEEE

SMILES	IC50
CC(C)C[C@H](NC(=O)[C@H](CC(N)=O)NC(=O)[C@H](CC(=O)O)NC(=O)[C@H](C)NC(=O)[C@H](C)NC(=O)[C@@H]1CCCN1C(=O)[C@H](CO)NC(=O)[C@H](Cc1ccccc1)NC(=O)[C@H](C)NC(=O)[C@@H]1CCCN1)C(=O)N[C@@H](Cc1ccc(O)cc1)C(=O)N[C@@H](Cc1ccc(OP(=O)(O)O)cc1)C(=O)N[C@@H](Cc1c[nH]c2ccccc12)C(=O)N[C@@H](CC(=O)O)C(=O)N[C@@H](CCC(N)=O)C(=O)N[C@@H](CC(N)=O)C(=O)N[C@@H](CO)C(=O)N[C@@H](CO)C(=O)N[C@@H](CCC(=O)O)C(=O)N[C@@H](CCC(N)=O)C(=O)NCC(=O)O [PAFSPAADNLY (pY) WDQNSSEQG, PAFSPAADNLY(pY)WDQNSSEQG] (HELM PEPTIDE1{P.A.F.S.P.A.A.D.N.L.Y.[O=C([C@H](Cc1ccc(OP(=O)(O)O)cc1)N[*:1])[*:2]].W.D.Q.N.S.S.E.Q.G}$$$$V2.0)	0.5 to 5 µM
CC(C)C[C@H](NC(=O)[C@H](CC(N)=O)NC(=O)[C@H](CC(=O)O)NC(=O)[C@H](Cc1ccccc1)NC(=O)[C@H](C)NC(=O)[C@@H]1CCCN1C(=O)[C@H](CO)NC(=O)[C@H](Cc1ccccc1)NC(=O)[C@H](C)NC(=O)[C@@H]1CCCN1)C(=O)N[C@@H](Cc1ccc(O)cc1)C(=O)N[C@@H](Cc1ccc(OP(=O)(O)O)cc1)C(=O)N[C@@H](C)C(=O)N[C@@H](CC(=O)O)C(=O)N[C@@H](CCC(N)=O)C(=O)N[C@@H](CC(N)=O)C(=O)N[C@@H](CO)C(=O)N[C@@H](CO)C(=O)N[C@@H](CCC(=O)O)C(=O)N[C@@H](CCC(N)=O)C(=O)NCC(=O)O [PAFSPAFDNLY (pY) ADQNSSEQG] (HELM PEPTIDE1{P.A.F.S.P.A.F.D.N.L.Y.[O=C([C@H](Cc1ccc(OP(=O)(O)O)cc1)N[*:1])[*:2]].A.D.Q.N.S.S.E.Q.G}$$$$V2.0)	> 50 µM
CC(C)C[C@H](NC(=O)[C@H](C)NC(=O)[C@H](CC(=O)O)NC(=O)[C@H](Cc1ccccc1)NC(=O)[C@H](C)NC(=O)[C@@H]1CCCN1C(=O)[C@H](CO)NC(=O)[C@H](Cc1ccccc1)NC(=O)[C@H](C)NC(=O)[C@@H]1CCCN1)C(=O)N[C@@H](Cc1ccc(O)cc1)C(=O)N[C@@H](Cc1ccc(OP(=O)(O)O)cc1)C(=O)N[C@@H](Cc1c[nH]c2ccccc12)C(=O)N[C@@H](CC(=O)O)C(=O)N[C@@H](CCC(N)=O)C(=O)N[C@@H](CC(N)=O)C(=O)N[C@@H](CO)C(=O)N[C@@H](CO)C(=O)N[C@@H](CCC(=O)O)C(=O)N[C@@H](CCC(N)=O)C(=O)NCC(=O)O [PAFSPAFDALY (pY) WDQNSSEQG] (HELM PEPTIDE1{P.A.F.S.P.A.F.D.A.L.Y.[O=C([C@H](Cc1ccc(OP(=O)(O)O)cc1)N[*:1])[*:2]].W.D.Q.N.S.S.E.Q.G}$$$$V2.0)	> 50 µM
CC(C)C[C@H](NC(=O)[C@H](CC(N)=O)NC(=O)[C@H](CC(=O)O)NC(=O)[C@H](Cc1ccccc1)NC(=O)[C@H](C)NC(=O)[C@@H]1CCCN1C(=O)[C@H](CO)NC(=O)[C@H](Cc1ccccc1)NC(=O)[C@H](C)NC(=O)[C@@H]1CCCN1)C(=O)N[C@@H](Cc1ccc(O)cc1)C(=O)N[C@@H](Cc1ccc(OP(=O)(O)O)cc1)C(=O)N[C@@H](Cc1ccccc1)C(=O)N[C@@H](CC(=O)O)C(=O)N[C@@H](CCC(N)=O)C(=O)N[C@@H](CC(N)=O)C(=O)N[C@@H](CO)C(=O)N[C@@H](CO)C(=O)N[C@@H](CCC(=O)O)C(=O)N[C@@H](CCC(N)=O)C(=O)NCC(=O)O [PAFSPAFDNLY (pY) FDQNSSEQG, PAFSPAFDNLY(pY)FDQNSSEQG] (HELM PEPTIDE1{P.A.F.S.P.A.F.D.N.L.Y.[O=C([C@H](Cc1ccc(OP(=O)(O)O)cc1)N[*:1])[*:2]].F.D.Q.N.S.S.E.Q.G}$$$$V2.0)	0.5 to 5 µM
CC(C)C[C@H](NC(=O)[C@H](CC(N)=O)NC(=O)[C@H](CC(=O)O)NC(=O)[C@H](Cc1ccccc1)NC(=O)[C@H](C)NC(=O)[C@@H]1CCCN1C(=O)[C@H](CO)NC(=O)[C@H](Cc1ccccc1)NC(=O)[C@H](C)NC(=O)[C@@H]1CCCN1)C(=O)N[C@@H](C)C(=O)N[C@@H](Cc1ccc(O)cc1)C(=O)N[C@@H](Cc1ccc(OP(=O)(O)O)cc1)C(=O)N[C@@H](Cc1c[nH]c2ccccc12)C(=O)N[C@@H](CC(=O)O)C(=O)N[C@@H](CCC(N)=O)C(=O)N[C@@H](CC(N)=O)C(=O)N[C@@H](CO)C(=O)N[C@@H](CO)C(=O)N[C@@H](CCC(=O)O)C(=O)N[C@@H](CCC(N)=O)C(=O)NCC(=O)O [PAFSPAFDNLAY (pY) WDQNSSEQG] (HELM PEPTIDE1{P.A.F.S.P.A.F.D.N.L.A.Y.[O=C([C@H](Cc1ccc(OP(=O)(O)O)cc1)N[*:1])[*:2]].W.D.Q.N.S.S.E.Q.G}$$$$V2.0)	0.5 to 5 µM
C[C@H](NC(=O)[C@@H]1CCCN1)C(=O)N[C@@H](Cc1ccccc1)C(=O)N[C@@H](CO)C(=O)N1CCC[C@H]1C(=O)N[C@@H](C)C(=O)N[C@@H](Cc1ccccc1)C(=O)N[C@@H](CC(=O)O)C(=O)N[C@@H](CC(N)=O)C(=O)N[C@@H](C)C(=O)N[C@@H](Cc1ccc(O)cc1)C(=O)N[C@@H](Cc1ccc(OP(=O)(O)O)cc1)C(=O)N[C@@H](Cc1c[nH]c2ccccc12)C(=O)N[C@@H](CC(=O)O)C(=O)N[C@@H](CCC(N)=O)C(=O)N[C@@H](CC(N)=O)C(=O)N[C@@H](CO)C(=O)N[C@@H](CO)C(=O)N[C@@H](CCC(=O)O)C(=O)N[C@@H](CCC(N)=O)C(=O)NCC(=O)O [PAFSPAFDNAY (pY) WDQNSSEQG, PAFSPAFDNAY(pY)WDQNSSEQG] (HELM PEPTIDE1{P.A.F.S.P.A.F.D.N.A.Y.[O=C([C@H](Cc1ccc(OP(=O)(O)O)cc1)N[*:1])[*:2]].W.D.Q.N.S.S.E.Q.G}$$$$V2.0)	0.5 to 5 µM
CC(C)C[C@H](NC(=O)[C@H](CC(N)=O)NC(=O)[C@H](CC(=O)O)NC(=O)[C@H](Cc1ccccc1)NC(=O)[C@H](C)NC(=O)[C@@H]1CCCN1C(=O)[C@H](CO)NC(=O)[C@H](Cc1ccccc1)NC(=O)[C@H](C)NC(=O)[C@@H]1CCCN1)C(=O)N[C@@H](Cc1ccc(O)cc1)C(=O)N[C@@H](Cc1ccc(OP(=O)(O)O)cc1)C(=O)N[C@@H](Cc1c[nH]c2ccccc12)C(=O)N[C@@H](CC(=O)O)C(=O)N[C@@H](C)C(=O)N[C@@H](CC(N)=O)C(=O)N[C@@H](CO)C(=O)N[C@@H](CO)C(=O)N[C@@H](CCC(=O)O)C(=O)N[C@@H](CCC(N)=O)C(=O)NCC(=O)O [PAFSPAFDNLY (pY) WDANSSEQG, PAFSPAFDNLY(pY)WDANSSEQG] (HELM PEPTIDE1{P.A.F.S.P.A.F.D.N.L.Y.[O=C([C@H](Cc1ccc(OP(=O)(O)O)cc1)N[*:1])[*:2]].W.D.A.N.S.S.E.Q.G}$$$$V2.0)	0.5 to 5 µM
CC(C)C[C@H](NC(=O)[C@H](CC(N)=O)NC(=O)[C@H](CC(=O)O)NC(=O)[C@H](Cc1ccccc1)NC(=O)[C@H](C)NC(=O)[C@@H]1CCCN1C(=O)[C@H](CO)NC(=O)[C@H](Cc1ccccc1)NC(=O)[C@H](C)NC(=O)[C@@H]1CCCN1)C(=O)N[C@@H](Cc1ccc(O)cc1)C(=O)N[C@@H](Cc1ccc(OP(=O)(O)O)cc1)C(=O)N[C@@H](Cc1c[nH]c2ccccc12)C(=O)N[C@@H](CC(=O)O)C(=O)N[C@@H](CCC(N)=O)C(=O)N[C@@H](CC(N)=O)C(=O)N[C@@H](C)C(=O)N[C@@H](CO)C(=O)N[C@@H](CCC(=O)O)C(=O)N[C@@H](CCC(N)=O)C(=O)NCC(=O)O [PAFSPAFDNLY (pY) WDQNASEQG, PAFSPAFDNLY(pY)WDQNASEQG] (HELM PEPTIDE1{P.A.F.S.P.A.F.D.N.L.Y.[O=C([C@H](Cc1ccc(OP(=O)(O)O)cc1)N[*:1])[*:2]].W.D.Q.N.A.S.E.Q.G}$$$$V2.0)	0.5 to 5 µM
CC(C)C[C@H](NC(=O)[C@H](CC(N)=O)NC(=O)[C@H](CC(=O)O)NC(=O)[C@H](Cc1ccccc1)NC(=O)[C@H](C)NC(=O)[C@@H]1CCCN1C(=O)[C@H](CO)NC(=O)[C@H](Cc1ccccc1)NC(=O)[C@H](C)NC(=O)[C@@H]1CCCN1)C(=O)N[C@@H](Cc1ccc(O)cc1)C(=O)N[C@@H](Cc1ccc(OP(=O)(O)O)cc1)C(=O)N[C@@H](Cc1c[nH]c2ccccc12)C(=O)N[C@@H](CC(=O)O)C(=O)N[C@@H](CC(=O)O)C(=O)N[C@@H](CC(N)=O)C(=O)N[C@@H](CO)C(=O)N[C@@H](CO)C(=O)N[C@@H](CCC(=O)O)C(=O)N[C@@H](CCC(N)=O)C(=O)NCC(=O)O [PAFSPAFDNLY (pY) WDDNSSEQG, PAFSPAFDNLY(pY)WDDNSSEQG] (HELM PEPTIDE1{P.A.F.S.P.A.F.D.N.L.Y.[O=C([C@H](Cc1ccc(OP(=O)(O)O)cc1)N[*:1])[*:2]].W.D.D.N.S.S.E.Q.G}$$$$V2.0)	0.5 to 5 µM
CC(C)C[C@H](NC(=O)[C@H](CC(N)=O)NC(=O)[C@H](C)NC(=O)[C@H](Cc1ccccc1)NC(=O)[C@H](C)NC(=O)[C@@H]1CCCN1C(=O)[C@H](CO)NC(=O)[C@H](Cc1ccccc1)NC(=O)[C@H](C)NC(=O)[C@@H]1CCCN1)C(=O)N[C@@H](Cc1ccc(O)cc1)C(=O)N[C@@H](Cc1ccc(OP(=O)(O)O)cc1)C(=O)N[C@@H](Cc1c[nH]c2ccccc12)C(=O)N[C@@H](CC(=O)O)C(=O)N[C@@H](CCC(N)=O)C(=O)N[C@@H](CC(N)=O)C(=O)N[C@@H](CO)C(=O)N[C@@H](CO)C(=O)N[C@@H](CCC(=O)O)C(=O)N[C@@H](CCC(N)=O)C(=O)NCC(=O)O [PAFSPAFANLY (pY) WDQNSSEQG, PAFSPAFANLY(pY)WDQNSSEQG] (HELM PEPTIDE1{P.A.F.S.P.A.F.A.N.L.Y.[O=C([C@H](Cc1ccc(OP(=O)(O)O)cc1)N[*:1])[*:2]].W.D.Q.N.S.S.E.Q.G}$$$$V2.0)	5 to 50 µM
CC(C)C[C@H](NC(=O)[C@H](CC(=O)O)NC(=O)[C@H](CC(=O)O)NC(=O)[C@H](Cc1ccccc1)NC(=O)[C@H](C)NC(=O)[C@@H]1CCCN1C(=O)[C@H](CO)NC(=O)[C@H](Cc1ccccc1)NC(=O)[C@H](C)NC(=O)[C@@H]1CCCN1)C(=O)N[C@@H](Cc1ccc(O)cc1)C(=O)N[C@@H](Cc1ccc(OP(=O)(O)O)cc1)C(=O)N[C@@H](Cc1c[nH]c2ccccc12)C(=O)N[C@@H](CC(=O)O)C(=O)N[C@@H](CCC(N)=O)C(=O)N[C@@H](CC(N)=O)C(=O)N[C@@H](CO)C(=O)N[C@@H](CO)C(=O)N[C@@H](CCC(=O)O)C(=O)N[C@@H](CCC(N)=O)C(=O)NCC(=O)O [PAFSPAFDDLY (pY) WDQNSSEQG] (HELM PEPTIDE1{P.A.F.S.P.A.F.D.D.L.Y.[O=C([C@H](Cc1ccc(OP(=O)(O)O)cc1)N[*:1])[*:2]].W.D.Q.N.S.S.E.Q.G}$$$$V2.0)	> 50 µM
